Laboratory results reported in patent US7557091B2, “HKI10311129, novel antibiotic, method for producing the same and the use thereof” (Leibniz-Institut fuer Naturstoff-Forschung und …, priority 2004, dated 2009).
In brackets after ≈: the same amount, converted by molar mass.

Tests used:
Test in all cases: MIC determination by NCCLS dilution antimicrobial susceptibility test
Format in all cases: cell-based
[1] = system: bacillus subtilis ATCC 6633; conditions: ATCC6633
Text: (§1) The antibacterial effects of HKI10311129 can be determined by applying methods well-known to the experts, such as the agar plate diffusion test and the determination of the minimal inhibitory concentration (MIC).
(§2) The antimicrobial characteristics have been tested according to the US laboratory standards—National Committee for Clinical Laboratory Standards, Methods for dilution anti-microbial susceptibility tests for bacteria that grow aerobically, Approved Standard M7-A. NCCLS, Villanova, Pa., 1991).

[2] = system: staphylococcus aureus SG 511; conditions: SG511
Text: as §1, §2

[3] = system: staphylococcus aureus 134/93 (MRSA); conditions: multiresistant
Text: as §1, §2

[4] = system: enterococcus faecalis 1528 (VRE); conditions: vanA-type vancomycin resistance
Text: as §1, §2

## COC1=CC(=O)c2c(cc3c(c2O)C(=O)C2(OC4CCC(OC5CCC(O)C(C)O5)C(C)O4)C(=O)C(C(N)=O)=C(O)C(OC4CCC(OC5CCC(OC6CCC(OC7CCC(O)C(C)O7)C(C)O6)C(C)O5)C(C)O4)C2C3)C1=O (stereo not shown) [HKI10311129]
[1]
  MIC: < 0.05 µg/mL
[2]
  MIC: 0.8 µg/mL (≈ 0.718 µM)
[3]
  MIC: 0.8 µg/mL (≈ 0.718 µM)
[4]
  MIC: 0.4 µg/mL (≈ 0.359 µM)
